Numbers after ± are expanded uncertainties.
Tests used:
[1] = molar enthalpy of vaporization or sublimation; settings: 298.15 K; Liquid
[2] = Liquid

Compound	molar enthalpy [1]	vapor or sublimation pressure ([2]; 298.15 K)	vapor or sublimation pressure ([2]; 328.15 K)	vapor or sublimation pressure ([2]; 358.15 K)	vapor or sublimation pressure ([2]; 388.15 K)	vapor or sublimation pressure ([2]; 418.15 K)	vapor or sublimation pressure ([2]; 448.15 K)	vapor or sublimation pressure ([2]; 478.15 K)	vapor or sublimation pressure ([2]; 508.15 K)	vapor or sublimation pressure ([2]; 538.15 K)	vapor or sublimation pressure ([2]; 568.15 K)	vapor or sublimation pressure ([2]; 575.15 K)
CCCCCCCCCCCCCCCCCCCCCCCCCCCCC [nonacosane]	35.2 ± 3.59 kcal/mol	1.018e-10 kPa	2.044e-08 ± 2.3e-08 kPa	1.365e-06 ± 6.8e-07 kPa	3.99e-05 ± 1.1e-05 kPa	0.0006219 ± 0.00012 kPa	0.005963 ± 0.00088 kPa	0.0391 ± 0.005 kPa	0.1897 ± 0.022 kPa	0.7225 ± 0.08 kPa	2.264 ± 0.24 kPa	2.884 ± 0.3 kPa
CCCCCCCCCCCCCCCCCCCCCCCCCC [hexacosane]	31.5 ± 2.22 kcal/mol	2.809e-09 kPa	3.247e-07 ± 2.4e-07 kPa	1.401e-05 ± 5.6e-06 kPa	0.0002888 ± 8.1e-05 kPa	0.003393 ± 0.0008 kPa	0.02583 ± 0.0056 kPa	0.14 ± 0.029 kPa	0.5797 ± 0.12 kPa	1.934 ± 0.4 kPa	5.417 ± 1.1 kPa	6.742 ± 1.4 kPa
CCCCCCCCCCCCCCCCCCCCCCCCCCC [heptacosane]	32.4 ± 2.29 kcal/mol	1.127e-09 kPa	1.502e-07 ± 1.2e-07 kPa	7.253e-06 ± 2.8e-06 kPa	0.0001636 ± 3.8e-05 kPa	0.002067 ± 0.00034 kPa	0.01669 ± 0.0023 kPa	0.09492 ± 0.012 kPa	0.4089 ± 0.046 kPa	1.409 ± 0.15 kPa	4.056 ± 0.43 kPa	5.076 ± 0.53 kPa
CCCCCCCCCCCCCCCCCCCCCCCCC [pentacosane]	30.3 ± 2.03 kcal/mol	8.145e-09 kPa	7.894e-07 ± 5.2e-07 kPa	2.963e-05 ± 1.1e-05 kPa	0.0005462 ± 0.00015 kPa	0.005863 ± 0.0014 kPa	0.04146 ± 0.009 kPa	0.2114 ± 0.044 kPa	0.8322 ± 0.17 kPa	2.661 ± 0.54 kPa	7.192 ± 1.5 kPa	8.882 ± 1.8 kPa
CCCCCCCCCCCCCCCCCCCCCCCCCCCCCC [triacontane]	36.4 ± 3.82 kcal/mol	3.317e-11 kPa	8.03e-09 ± 1e-08 kPa	6.217e-07 ± 3.6e-07 kPa	2.045e-05 ± 7.1e-06 kPa	0.0003508 ± 9.2e-05 kPa	0.003636 ± 0.00084 kPa	0.02543 ± 0.0055 kPa	0.1301 ± 0.027 kPa	0.5185 ± 0.11 kPa	1.687 ± 0.34 kPa	2.167 ± 0.44 kPa

From the NIST ThermoML archive (doi:10.1021/je0301747)
